Assay results as given in ChEMBL document CHEMBL3885861, “Open TG-GATES”.

Species on record: Rattus norvegicus
Assay: Open TG-GATES - Regimen: Daily Repeat
Type: toxicity, organism-based, Sprague-Dawley
Design: regimen Daily Repeat, gender Male, age 6 weeks
Conditions: in vivo, po, route gavage; for TP / gamma-GTP / ALP / ALT / AST / BUN / CRE / DBIL / GLC / IP / K / LDH / Na / PL / RALB / TBIL / TC / TG: tissue Plasma; for APTT / Bas / Eos / Fbg / Ht / Lym / MCH / MCHC / MCV / Mono / Neu / Plat / RBC / Ret / WBC: tissue Blood
[1] = 45 mg/kg, […], dose level Low, time 28 day
[2] = 150 mg/kg, 72 h, dose level Middle, time 3 day
[3] = 150 mg/kg, […], dose level Middle, time 7 day
[4] = 150 mg/kg, […], dose level Middle, time 14 day
[5] = 150 mg/kg, […], dose level Middle, time 28 day
[6] = 450 mg/kg, 72 h, dose level High, time 3 day
[7] = 450 mg/kg, […], dose level High, time 7 day
[8] = 450 mg/kg, […], dose level High, time 14 day
[9] = 450 mg/kg, […], dose level High, time 28 day

Compound CCCC(CCC)C(=O)O [VALPROIC ACID] has a TP [1] of 5.9 g/dL, a gamma-GTP [1] of 0.6 IU/L and a TERMINAL_BW [2] of 227 g. The APTT [2] was 19.8 s, the Bas [2] was 0% and the Eos [2] was 1%. The Fbg [2] was 219.8 mg/dL, the Ht [2] was 38.6% and the Lym [2] was 78%. For the same compound, the MCH [2] was 21.6 pg, the MCHC [2] was 34.3% and the MCV [2] was 62.9 fL. It also gave a Mono [2] of 3.8%, a Neu [2] of 17% and a Plat [2] of 140.1 x10_4/uL. The RBC [2] was 614.2 x10_4/ul, the Ret [2] was 6.8% and the WBC [2] was 106.9 x10_2/uL. The ALP [2] was 920.6 IU/L, the ALT [2] was 40 IU/L and the AST [2] was 73.6 IU/L. It also gave a BUN [2] of 16.2 mg/dL, a CRE [2] of 0.4 mg/dL and a DBIL [2] of 0.074 mg/dL. The GLC [2] was 211.4 mg/dL, the IP [2] was 7.9 mg/dL and the K [2] was 3.8 meq/L. The LDH [2] was 179.2 IU/L, the Na [2] was 141.4 meq/L and the PL [2] was 148.6 mg/dL. For the same compound, the RALB [2] was 3.3 g/dL, the TBIL [2] was 0.1 mg/dL and the TC [2] was 76.8 mg/dL. It also gave a TG [2] of 73 mg/dL, a TP [2] of 5.4 g/dL and a gamma-GTP [2] of 1.2 IU/L. The TERMINAL_BW [3] was 255.5 g, the TERMINAL_BW [4] was 311.1 g and the TERMINAL_BW [5] was 400.1 g. The APTT [3] was 19.5 s, the Bas [3] was 0% and the Eos [3] was 1.2%. The Fbg [3] was 219.6 mg/dL, the Ht [3] was 40.1% and the Lym [3] was 81%. For the same compound, the MCH [3] was 20.8 pg, the MCHC [3] was 33.9% and the MCV [3] was 61.3 fL. It also gave a Mono [3] of 3.4%, a Plat [3] of 129.5 x10_4/uL and an RBC [3] of 655 x10_4/ul. For the same compound, the Ret [3] was 5.7%, the WBC [3] was 106 x10_2/uL and the APTT [4] was 18.7 s. For the same compound, the Bas [4] was 0%, the Eos [4] was 1% and the Fbg [4] was 216.8 mg/dL. For the same compound, the Ht [4] was 42.3%, the Lym [4] was 83.2% and the MCH [4] was 20.6 pg. For the same compound, the MCHC [4] was 35%, the MCV [4] was 58.9 fL and the Mono [4] was 2.6%. It also gave a Neu [4] of 13.2%, a Plat [4] of 108.8 x10_4/uL and an RBC [4] of 720 x10_4/ul. It also gave a Ret [4] of 4%, a WBC [4] of 93.8 x10_2/uL and an APTT [5] of 19.7 s. The Bas [5] was 0%, the Eos [5] was 1.4% and the Fbg [5] was 214.2 mg/dL. It also gave a Ht [5] of 42.1%, a Lym [5] of 83.2% and an MCH [5] of 19 pg. It also gave an MCHC [5] of 35.2%, an MCV [5] of 53.9 fL and a Mono [5] of 2.6%. It also gave a Neu [5] of 12.4%, a Plat [5] of 116.1 x10_4/uL and an RBC [5] of 781.6 x10_4/ul. It also gave a Ret [5] of 2.3%, a WBC [5] of 89.2 x10_2/uL and an ALP [3] of 816 IU/L. It also gave an ALT [3] of 29.8 IU/L, an AST [3] of 59.2 IU/L and a BUN [3] of 15.4 mg/dL. It also gave a CRE [3] of 0.4 mg/dL, a DBIL [3] of 0.078 mg/dL and a GLC [3] of 220.6 mg/dL. It also gave an IP [3] of 7.2 mg/dL, a K [3] of 3.7 meq/L and an LDH [3] of 194.4 IU/L. The Na [3] was 140.6 meq/L, the RALB [3] was 3.4 g/dL and the TBIL [3] was 0.1 mg/dL. The TC [3] was 69.4 mg/dL, the TG [3] was 109.4 mg/dL and the TP [3] was 5.6 g/dL. The gamma-GTP [3] was 1.4 IU/L, the ALP [4] was 877.8 IU/L and the ALT [4] was 34.4 IU/L. For the same compound, the AST [4] was 64.2 IU/L, the BUN [4] was 16.6 mg/dL and the CRE [4] was 0.4 mg/dL. For the same compound, the DBIL [4] was 0.082 mg/dL, the GLC [4] was 218.2 mg/dL and the IP [4] was 7.9 mg/dL. The K [4] was 3.8 meq/L, the LDH [4] was 176.8 IU/L and the Na [4] was 140.4 meq/L. It also gave a PL [4] of 153.2 mg/dL, an RALB [4] of 3.4 g/dL and a TBIL [4] of 0.1 mg/dL. The TC [4] was 69.4 mg/dL, the TG [4] was 123 mg/dL and the TP [4] was 5.8 g/dL. The gamma-GTP [4] was 0.8 IU/L, the ALP [5] was 729.4 IU/L and the ALT [5] was 35 IU/L. It also gave an AST [5] of 65 IU/L, a BUN [5] of 17.6 mg/dL and a CRE [5] of 0.4 mg/dL. The DBIL [5] was 0.1 mg/dL, the GLC [5] was 208.2 mg/dL and the IP [5] was 6.7 mg/dL. The K [5] was 3.9 meq/L, the LDH [5] was 178.4 IU/L and the Na [5] was 141 meq/L. For the same compound, the PL [5] was 142.4 mg/dL, the RALB [5] was 3.5 g/dL and the TBIL [5] was 0.2 mg/dL. It also gave a TC [5] of 66.6 mg/dL, a TG [5] of 130.4 mg/dL and a TP [5] of 6.1 g/dL. It also gave a gamma-GTP [5] of 0.6 IU/L, a TERMINAL_BW [6] of 225.2 g and an APTT [6] of 19.4 s. The Bas [6] was 0%, the Eos [6] was 1% and the Fbg [6] was 213.4 mg/dL. The Ht [6] was 38.5%, the Lym [6] was 79.2% and the MCH [6] was 21.5 pg. It also gave an MCHC [6] of 34.4%, an MCV [6] of 62.4 fL and a Mono [6] of 2.8%. For the same compound, the Neu [6] was 16.4%, the Plat [6] was 131.5 x10_4/uL and the RBC [6] was 618.2 x10_4/ul. The Ret [6] was 5.1%, the WBC [6] was 85.9 x10_2/uL and the ALP [6] was 765 IU/L. The ALT [6] was 31.2 IU/L, the AST [6] was 64.8 IU/L and the BUN [6] was 14.6 mg/dL. It also gave a CRE [6] of 0.4 mg/dL, a DBIL [6] of 0.07 mg/dL and a GLC [6] of 201.8 mg/dL. It also gave an IP [6] of 7.9 mg/dL, a K [6] of 3.7 meq/L and an LDH [6] of 197.2 IU/L. The Na [6] was 141.8 meq/L, the PL [6] was 136 mg/dL and the RALB [6] was 3.4 g/dL. The TBIL [6] was 0.1 mg/dL, the TC [6] was 67.2 mg/dL and the TG [6] was 64.8 mg/dL. For the same compound, the TP [6] was 5.5 g/dL, the gamma-GTP [6] was 1.2 IU/L and the TERMINAL_BW [7] was 257.7 g. It also gave a TERMINAL_BW [8] of 310.7 g, a TERMINAL_BW [9] of 375.7 g and an APTT [7] of 19.5 s. The Bas [7] was 0%, the Eos [7] was 0.8% and the Fbg [7] was 209.8 mg/dL. For the same compound, the Ht [7] was 39.4%, the Lym [7] was 78.8% and the MCH [7] was 21.1 pg. It also gave an MCHC [7] of 34.2%, an MCV [7] of 61.7 fL and a Mono [7] of 4.2%. It also gave a Plat [7] of 114.2 x10_4/uL, an RBC [7] of 639.6 x10_4/ul and a Ret [7] of 6%. It also gave a WBC [7] of 111.1 x10_2/uL, an APTT [8] of 18.5 s and a Bas [8] of 0%. It also gave an Eos [8] of 0.8%, a Fbg [8] of 226.2 mg/dL and a Ht [8] of 41.6%. The Lym [8] was 84%, the MCH [8] was 20.2 pg and the MCHC [8] was 34.6%. The MCV [8] was 58.4 fL, the Mono [8] was 3.6% and the Neu [8] was 10.6%. For the same compound, the Plat [8] was 116.8 x10_4/uL, the RBC [8] was 712.6 x10_4/ul and the Ret [8] was 4.7%. The WBC [8] was 84.9 x10_2/uL, the APTT [9] was 20.4 s and the Bas [9] was 0%. It also gave an Eos [9] of 1%, a Fbg [9] of 201 mg/dL and a Ht [9] of 41.7%. The Lym [9] was 85%, the MCH [9] was 19.1 pg and the MCHC [9] was 34.7%. It also gave an MCV [9] of 55.1 fL, a Mono [9] of 3% and a Neu [9] of 10%. It also gave a Plat [9] of 101.4 x10_4/uL, an RBC [9] of 757 x10_4/ul and a Ret [9] of 2.4%. The WBC [9] was 78.5 x10_2/uL, the ALP [7] was 901.6 IU/L and the ALT [7] was 35.2 IU/L. It also gave an AST [7] of 65.6 IU/L, a BUN [7] of 16.2 mg/dL and a CRE [7] of 0.4 mg/dL. It also gave a DBIL [7] of 0.082 mg/dL, a GLC [7] of 217.6 mg/dL and an IP [7] of 7.5 mg/dL. The K [7] was 3.9 meq/L, the LDH [7] was 204.2 IU/L and the Na [7] was 139.4 meq/L. The PL [7] was 132.8 mg/dL, the RALB [7] was 3.3 g/dL and the TBIL [7] was 0.1 mg/dL. The TC [7] was 62 mg/dL, the TG [7] was 94.4 mg/dL and the TP [7] was 5.6 g/dL. It also gave a gamma-GTP [7] of 1.4 IU/L, an ALP [8] of 786 IU/L and an ALT [8] of 33 IU/L. The AST [8] was 64.6 IU/L, the BUN [8] was 17 mg/dL and the CRE [8] was 0.4 mg/dL. For the same compound, the DBIL [8] was 0.086 mg/dL, the GLC [8] was 207.6 mg/dL and the IP [8] was 6.9 mg/dL. For the same compound, the K [8] was 3.7 meq/L, the LDH [8] was 189.2 IU/L and the Na [8] was 140.2 meq/L. The PL [8] was 140.4 mg/dL, the RALB [8] was 3.4 g/dL and the TBIL [8] was 0.1 mg/dL. It also gave a TC [8] of 65 mg/dL, a TG [8] of 101 mg/dL and a TP [8] of 5.7 g/dL. It also gave a gamma-GTP [8] of 1.6 IU/L, an ALP [9] of 583.2 IU/L and an ALT [9] of 29.2 IU/L. The AST [9] was 62.8 IU/L, the BUN [9] was 17.8 mg/dL and the CRE [9] was 0.5 mg/dL. The DBIL [9] was 0.078 mg/dL, the GLC [9] was 198.8 mg/dL and the IP [9] was 5.9 mg/dL. The K [9] was 3.9 meq/L, the LDH [9] was 209.8 IU/L and the Na [9] was 140.4 meq/L. The PL [9] was 126.6 mg/dL, the RALB [9] was 3.4 g/dL and the TBIL [9] was 0.1 mg/dL. For the same compound, the TC [9] was 55.4 mg/dL, the TG [9] was 98.4 mg/dL and the TP [9] was 5.7 g/dL. It also gave a gamma-GTP [9] of 1 IU/L.
